Experimental data taken from US20200316056A1, “Pain Medicine Combination and Uses Thereof” (Mindlab, LLC, priority 2013, published 2020).
Values joined by “and” are separate entries in the source; they are usually repeats but may differ in a detail not shown here. Equal entries are not always repeated.

System: rats
Test: Ugo Basile Tail Flick method (Example 2)
Format: in vivo
Settings: for Tail Flick Time (seconds) after administration: individual rats 1-7; for Tail Flick Time (seconds) after administration, Mean: mean of 7 rats; for Tail Flick Time (seconds) after administration, Median: median of 7 rats
Method: The addition of quinidine to a pharmaceutical composition of morphine, and dextromethorphan was tested using Ugo Basile Tail Flick method. This method is often used for in vivo screening of multiple drugs with analgesic activity. The animal was placed and held on the Ugo Basile Tail Flick instrument surface with the tail straight back and across an infrared light source. The heat source and timer are turned on by a foot pedal press, and automatically switch off when the animal flicks its tail off the emitter. Latency time is measured and analyzed as an analgesic effect. Each preparation was tested in 7 rats.

Compound	Tail Flick Time (seconds) after administration (1 h after administration)	Tail Flick Time (seconds) after administration, Mean (1 h after administration) [s]	Tail Flick Time (seconds) after administration, Median (1 h after administration) [s]	Tail Flick Time (seconds) after administration (3 h after administration)	Tail Flick Time (seconds) after administration, Mean (3 h after administration) [s]	Tail Flick Time (seconds) after administration, Median (3 h after administration) [s]	Tail Flick Time (seconds) after administration (5 h after administration)	Tail Flick Time (seconds) after administration, Mean (5 h after administration) [s]	Tail Flick Time (seconds) after administration, Median (5 h after administration) [s]	Tail Flick Time (seconds) after administration (8 h after administration)	Tail Flick Time (seconds) after administration, Mean (8 h after administration) [s]	Tail Flick Time (seconds) after administration, Median (8 h after administration) [s]	Tail Flick Time (seconds) after administration (10 h after administration)	Tail Flick Time (seconds) after administration, Mean (10 h after administration) [s]	Tail Flick Time (seconds) after administration, Median (10 h after administration) [s]	Tail Flick Time (seconds) after administration (14 h after administration)	Tail Flick Time (seconds) after administration, Mean (14 h after administration) [s]	Tail Flick Time (seconds) after administration, Median (14 h after administration) [s]	Tail Flick Time (seconds) after administration (24 h after administration)	Tail Flick Time (seconds) after administration, Mean (24 h after administration) [s]	further results
COc1ccc2c(c1)[C@]13CCCC[C@@H]1[C@H](C2)N(C)CC3 [Dextromethorphan]	4.10 s and 3.90 s and 3.30 s and 4.80 s and 5.60 s and 3.70 s and 7.30 s	4.67	4.10	3.90 seconds and 4.60 seconds (2×) and 4.50 seconds and 5.40 seconds and 3.30 seconds and 8.70 seconds	5.00	4.60	4.60 seconds and 6.40 seconds (2×) and 2.90 seconds and 5.10 seconds and 4.10 seconds and 4.50 seconds	4.86	4.60	5.40 s and 5.10 s and 3.70 s and 7.30 s and 4.30 s and 3.80 s and 3.60 s	4.74	4.30	3.10 seconds and 5.50 seconds and 4.30 seconds and 4.80 seconds (2×) and 3.90 seconds and 6.60 seconds	4.71	4.80	3.90 seconds (2×) and 5.20 seconds and 5.60 seconds and 3.80 seconds and 5.10 seconds and 4.10 seconds	4.51	4.10	3.50 seconds (2×) and 4.70 seconds and 4.30 seconds and 5.20 seconds and 3.70 seconds and 3.10 seconds	4.00	Tail Flick Time (seconds) after administration, Median (24 h after administration): 3.70 s
CN1CC[C@]23c4c5ccc(O)c4O[C@H]2[C@@H](O)C=C[C@H]3[C@H]1C5 [Morphine]	5.80 s and 5.10 s and 6.50 s and 30.10 s and 6.80 s and 10.50 s and 3.70 s	9.79	6.50	6.30 s and 7.60 s and 2.70 s and 9.50 s and 5.30 s and 5.90 s and 4.80 s	6.01	5.90	4.80 seconds and 6.60 seconds and 5.90 seconds and 10.90 seconds and 4.90 seconds and 4.60 seconds (2×)	6.04	4.90	6.90 s and 10.50 s and 8.30 s and 8.50 s and 6.70 s and 6.30 s and 3.50 s	7.24	6.90	4.70 s and 4.10 s and 4.80 s and 6.50 s and 6.20 s and 4.20 s and 2.90 s	4.77	4.70	3.50 seconds and 7.50 seconds and 5.10 seconds (2×) and 7.80 seconds and 2.90 seconds and 4.10 seconds	5.14	5.10	4.80 seconds (2×) and 7.60 seconds and 4.30 seconds and 3.40 seconds and 4.90 seconds and 6.10 seconds	5.13	Tail Flick Time (seconds) after administration, Median (1 h after administration, listed as morphine): 6.5 s; Tail Flick Time (seconds) after administration, Median (24 h after administration): 4.80 s
